Assay results taken from patent EP4467141A1, “PYRAZOLO-QUINOLINES AS SELECTIVE INHIBITORS OF GENOTOXIC STRESS-INDUCED IKK/NF- KB PATHWAYS FOR CANCER THERAPY” (Max-Delbrück-Centrum für Molekulare Medizin in der …, priority 2023, dated 2024).

Key:
[1] = tested on: NF-κB subunit p65 phosphorylation (S536); experiment: Western blot of p65 phosphorylation (S536) after DNA damage (irradiation or etoposide) in U2-OS cells; assay type: cell-based; settings: 10 µM plus etoposide 50 µM, 24 hours
U2-OS cells = experiment: Cell viability assay; assay type: cell-based; settings: for cell viability, etoposide co-treatment: 10 µM plus etoposide 50 µM, compared to etoposide alone; for cell viability, compound alone: 10 µM, 6, 24, and 48 hours, compared to DMSO
Protocol: Fig.4: MW01 and MW05 reduce cell viability and increase p53-mediated apoptosis upon etoposide co-treatment. (A) Representative light microscopy images of U2-OS cells following treatment with DMSO, MW01 (10 µM), MW05 (10 µM), or etoposide (50 µM), or co-treatment with MW01 (10 µM) and etoposide (50 µM), or MW05 (10 µM) and etoposide (50 µM) at 24 (left) and 48 hours (right). (B) Quantification of cell viability using CellTiter-Fluor Cell Viability Assay at 6, 24, and 48 hours. Treatment with 0.1% SDS 30 minutes prior to assay was used as positive cell death control. (ns: not significant; *, **, ***: p<0.05, p<0.01, p<0.001). (C) U2-OS cells were treated with DMSO, MW01 (10 µM), MW 05 (10 µM), or etoposide (50 µM), or co-treated with MW01 (10 µM) and etoposide (50 µM), or MW05 (10 µM) and etoposide (50 µM), as indicated. After 24 hours, whole cell lysates were prepared and analyzed by Western blotting for p65 phosphorylation (S536), caspase-3 and cleaved caspase-3 (left panel) and for p53 and γH2AX) (right panel). Vinculin was used as loading control.
1×10^4 cells per well were seeded in a 96-well plate and incubated overnight. The day after, cells were treated with 10 µM of compounds under investigation, 50 µM Etoposide or 10 µM Cisplatin, alone or in combination, for appropriate time points. DMSO and 10% of Triton-X100 were used as negative and positive control respectively. Luminescent staining was performed using CellTiter-Glo Luminescent Cell Viability Assay (Promega, G7570), adding in each well a volume of CellTiter-Glo reagent equal to the volume of cell culture medium present into the well. After 1h of incubation at 37°C, luminescence was read by BioTek Cytation 1 Cell Imaging Multimode Reader (Agilent).
We hypothesized that due to the important function of the DNA double strand-induced IKK-NF-κB pathway as in anti-apoptotic signalling (Stilmann et al., 2009), both MW01 and MW05 should sensitize cells to DNA damaging agents, and therefore support their potential use to potentiate genotoxic therapies. To characterize the effect of MW01 and MW05 on cell viability, we treated cells with both compounds alone or in combination with etoposide to induce DNA lesions (Fig. 4A). […] The same effect in cell viability reduction was confirmed for MW01 and MW05 in co-treatment with cisplatin, another widely used chemotherapeutic drug. To investigate the underlying molecular causes of this phenotype, we looked at markers of NF-κB and p53 activation, DNA damage, and apoptosis after single and co-treatment with MW01, MW05, and etoposide (Fig 4C). MW01 and MW05 abrogated etoposide-stimulated p65 phosphorylation, thereby validating our inhibition of IKK and NF-κB activity. […]

SMILES | etoposide-stimulated p65 phosphorylation [1] | cell viability, etoposide co-treatment (U2-OS cells) | cell viability, compound alone (U2-OS cells)
COc1ccc2c(c1OC)c(=O)n1c3ccc(O)cc3c3ccnc2c31 [MW01, 5-Hydroxy-10,11-dimethoxy-9H-benzo[c]indolo[3,2,1-ij][1,5]naphthyridin-9-one] | abrogated | significantly reduced cell viability after 6 hours | slightly reduced cell viability
COc1ccc2cc3c(N)nn(C(=O)c4cccc(N(C)C)c4)c3nc2c1 [MW05, (3-Amino-7-methoxypyrazolo[3,4-b]quinolin-1-yl)-[3-(dimethylamino)phenyl]methanone] | abrogated | significant reduction after 24 hours | slightly reduced cell viability
